In patent publication US9468643B2, “PDE5 inhibitor compositions and methods for immunotherapy” (The Johns Hopkins University, priority 2005, dated 2016):
Entries after “also recorded” stand apart in the source; their conditions may differ. Read-outs that look alike come from different tables or passages of the source.

How the values were obtained:
tumor = conditions: cited from earlier work; for anti-tumor efficacy as single agent: used alone; for efficacy of antitumor vaccines when used as adjuvant: with vaccines
[1] = test system: CT26-WT or C26GM colon carcinoma; experiment: Tumor outgrowth after s.c. challenge with CT26-WT or C26GM; assay type: in vivo, mice (BALB/c); conditions: for anti-tumor efficacy in immune deficient Rag-/- mice: BALB/c Rag-/- mice; for tumor outgrowth: Balb/c mice, CT26-WT or C26GM, sildenafil 20 mg/kg/day, tadalafil 2 mg/kg/day ip, treatment alone
[2] = human, in vivo, cited from earlier work
purified CD11b+ MSCs = experiment: IL4Rα expression on purified CD11b+ MSCs cultured with sildenafil; assay type: cell-based, mice; conditions: for IL4Rα expression in cultured MSCs: sildenafil 50 μg/ml in culture; for IFN-γ mediated IL4Rα up-regulation in cultured MSCs: sildenafil 50 μg/ml, IFN-γ 25 ng/ml added on day 2
[3] = test system: tumor-associated MSCs (CD11b+ cells); experiment: In vivo sildenafil treatment of tumor-bearing mice; analysis of purified tumor-associated CD11b+ MSCs (cGMP EIA, Western blot, NO, arginase, IL4Rα flow cytometry); set-up: species or system mice (BALB/c); conditions: sildenafil 20 mg/kg/day in vivo
C26GM colon carcinoma [4] = experiment: Adoptive cell transfer (ACT) with sildenafil in C26GM-bearing mice, tumor size; assay type: in vivo, mice (BALB/c)
[5] = test system: tumor infiltrating CD8+ / CD4+ T cells; experiment: Tumor-infiltrating lymphocyte number and activation in sildenafil-treated tumor-bearing mice; assay type: in vivo, mice (BALB/c)
[6] = test system: tumor-derived CD11b+ MSCs / antigen-specific T cells; experiment: MSC suppressive assay (CFSE dilution of antigen-specific T cells admixed with CD11b+ MSCs); assay type: cell-based, mice; conditions: sildenafil 50 μg/ml
C26GM colon carcinoma [7] = experiment: C26GM tumor outgrowth with sildenafil and anti-CD8 depleting antibody; assay type: in vivo, mice (BALB/c)
[8] = test system: PBLs (CD4+ and CD8+ T cells); experiment: Proliferation assay of PBLs stimulated with anti-CD3/CD28 antibody-coated beads; assay type: cell-based, human

CC(=O)Oc1ccccc1C(=O)Oc1cccc(CO[N+](=O)[O-])c1 [nitroaspirin]
anti-tumor efficacy as single agent (tumor): no anti-tumor efficacy when used alone | anti-tumor efficacy as single agent (tumor; listed as nitro-aspirin): ineffective as a single agent | efficacy of antitumor vaccines when used as adjuvant (tumor): enhanced the preventive and therapeutic efficacy of antitumor vaccines | efficacy of antitumor vaccines when used as adjuvant (tumor; listed as nitro-aspirin): augmented the anti-tumor efficacy of vaccines on established tumors

CN1CC(=O)N2[C@H](c3ccc4c(c3)OCO4)c3[nH]c4ccccc4c3C[C@@H]2C1=O [tadalafil]
anti-tumor efficacy in immune deficient Rag-/- mice [1]: lack of anti-tumor efficacy | tumor outgrowth [1]: significantly delayed tumor outgrowth | apparent oral clearance (CL/F) ([2]; po): 2.48 L/h | time of peak plasma concentration post-dose ([2]; po): two | mean elimination half-life [2]: about 17.5 h

CCCc1nn(C)c2c(=O)[nH]c(-c3cc(S(=O)(=O)N4CCN(C)CC4)ccc3OCC)nc12 [sildenafil]
IL4Rα expression in cultured MSCs (purified CD11b+ MSCs): significantly reduced | IL4Rα expression in cultured MSCs (purified CD11b+ MSCs; listed as Sildenafil): down-regulates IL4Rα in cultured MSCs | IFN-γ mediated IL4Rα up-regulation in cultured MSCs (purified CD11b+ MSCs): significantly reduced | IFN-γ mediated IL4Rα up-regulation in cultured MSCs (purified CD11b+ MSCs; listed as Sildenafil): prevents IFN-γ mediated IL4Rα up-regulation | NO production by intratumoral MSCs ([3]; NO3-NO2 in supernatant): lower NO production | NOS2 expression in intratumoral MSCs ([3]; Western blot): down-regulation of NOS2 | Arg-1 expression and activity in intratumoral MSCs ([3]; Western blot and arginase assay): down-regulated Arg-1 | intracellular cGMP levels in intratumoral MSCs ([3]; competitive enzyme immune assay, vs control group): higher intracellular cGMP levels than the control group | intracellular cGMP in the non-MSC population ([3]; data not shown): No significant differences | IL4Rα expression on intratumoral MSCs ([3]; flow cytometry): significantly reduced IL4Rα expression | tumor outgrowth, sildenafil without adoptive transfer (C26GM colon carcinoma [4]; sildenafil 20 mg/kg/day in drinking water): statistically significant reduction in tumor outgrowth | anti-tumor efficacy, sildenafil coupled with adoptive immunotherapy (ACT) (C26GM colon carcinoma [4]; sildenafil 20 mg/kg/day plus 20×10^6 C26GM-primed splenocytes): greatest anti-tumor efficacy | IL-2 production (GFP) by adoptively transferred vaccine-primed CD8+ T cells in the tumor ([5]; BALB/c-IL-2p/GFP splenocytes, sildenafil for 9 days): activated in the tumor microenvironment only with PDE5 inhibition | CD4+ T cell tumor infiltration ([5]; C26GM, day 9, flow cytometry): no increase in CD4^+ T cells | CD8+ T cell tumor infiltration ([5]; C26GM, day 9, flow cytometry): increase in intratumoral CD8^+ T cell infiltration | activation of tumor-infiltrating CD8+ T cells (CD69 and CD25) ([5]; C26GM, day 9, flow cytometry): increased the percentage of activated T cells; also recorded: significantly activated the tumor-infiltrating CD8^+ T cells | CD8+ T cell tumor infiltration ([5]; C26GM, day 9, flow cytometry, listed as Sildenafil): greater CD8^+ tumor infiltration | intratumoral cellular infiltration (hematoxylin-eosin staining) ([5]; CT26WT, day 15, sildenafil 20 mg/kg/day, vs untreated controls): greater intratumoral cellular infiltration | tumor-infiltrating CD8+ cells specific for AH1 (tetramer positive) ([5]; sildenafil-treated group, n=3, untreated 1.19±1.180): 9.08%±0.905 | anti-tumor efficacy in immune deficient Rag-/- mice [1]: lack of anti-tumor efficacy | tumor outgrowth [1]: significantly delayed tumor outgrowth | proliferation (responsiveness) of HA-specific CD4+ and CD8+ T cells in presence of tumor-derived MSCs ([6]; BALB/c, C26GM-derived CD11b+ MSCs): almost completely restored | suppression of OVA-specific CD4+ T cells by MSCs from NOS2+/+ mice ([6]; C57Bl/6 NOS2+/+, B16GM melanoma): reversed MSC suppression | responsiveness of OVA-specific CD4+ T cells with MSCs from NOS2-/- mice ([6]; C57Bl/6 NOS2-/-, B16GM melanoma): did not augment T cell responsiveness | T cell function in the groups lacking CD11b cells ([6]; no MSCs added): absence of a sildenafil-mediated enhancement in T cell function | tumor outgrowth effect of sildenafil with anti-CD8 depleting antibody (C26GM colon carcinoma [7]; anti-CD8 clone 2.43 on days 0, 2, 4, 6): completely abolished by CD8^+ depletion | tumor outgrowth (C26GM colon carcinoma [7]; sildenafil alone): statistically significant reduction in tumor outgrowth | proliferation of isolated CD3+ T cells ([8]; data not shown): unable to increase T cell proliferation | CD4+ and CD8+ proliferation of PBLs from head and neck cancer and multiple myeloma patients ([8]; sildenafil 50 μg/ml, 5 days): restore CD3/CD28-stimulated proliferation of PBLs; also recorded: significantly restored CD4^+ and CD8^+ proliferation in all the examined patients | proliferation of PBLs from healthy donors ([8]; sildenafil 50 μg/ml, 5 days): no effect on PBLs from healthy donors
